Where a name gives a salt, the structure may show the parent alone.

The test concerns the target T1, IRAK4 (Homo sapiens, UniProt Q9NWZ3).
T1 sequence (Q9NWZ3 1-460): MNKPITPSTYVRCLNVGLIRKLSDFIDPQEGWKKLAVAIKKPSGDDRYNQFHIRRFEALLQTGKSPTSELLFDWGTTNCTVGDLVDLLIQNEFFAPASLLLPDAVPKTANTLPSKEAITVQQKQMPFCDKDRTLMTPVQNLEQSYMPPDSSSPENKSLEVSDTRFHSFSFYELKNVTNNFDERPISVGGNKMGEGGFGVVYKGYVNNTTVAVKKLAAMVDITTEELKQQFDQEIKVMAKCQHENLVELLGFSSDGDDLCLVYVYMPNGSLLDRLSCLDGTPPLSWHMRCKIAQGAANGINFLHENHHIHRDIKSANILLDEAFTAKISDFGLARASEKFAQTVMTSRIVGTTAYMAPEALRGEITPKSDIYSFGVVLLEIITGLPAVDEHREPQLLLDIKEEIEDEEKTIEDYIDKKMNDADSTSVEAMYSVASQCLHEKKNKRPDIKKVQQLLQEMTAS
Briefly: 2-hour 1 mM ATP IRAK4 Biochemical assay (as above, but with 100 pM IRAK4 and 1 mM ATP). As to conditions: IRAK4 MSD BIOCHEMICAL (1 mM ATP) IC50 (μM), 100 pM IRAK4, 2 hours. In outline:
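Run with 100 pM IRAK4 and 1 mM ATP for 2 hours, quenched with EDTA pH 8. Phosphorylated biotinylated peptide captured on streptavidin MSD plates and detected with anti-phosphothreonine antibody plus Sulfo-Tag secondary by electrochemiluminescence.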
On to `CC(Oc1cc2nc(C34COC(C)(C3)C4)cn2cc1NC(=O)c1ccn(C)n1)C(F)(F)F` (stereo not shown) [Example 399, 1-methyl-N-(2-(1-methyl-2-oxabicyclo[2.1.1]hexan-4-yl)-7-((1,1,1-trifluoropropan-2-yl)oxy)imidazo[1,2-a]pyridin-6-yl)-1H-pyrazole-3-carboxamide 2,2,2-trifluoracetate], for which the concentration for half-maximal inhibition (IC50) – broadly, the concentration at which inhibition is half-maximal – was determined as 0.001 µM.
In turn, `COc1ccccc1C(=O)Nc1cn2cc(Cl)nc2cc1OC(C)C` [Example 400, N-(2-chloro-7-isopropoxyimidazo[1,2-a]pyridin-6-yl)-2-methoxybenzamide 2,2,2-trifluoroacetate] gave an IC50 of 0.054 µM.
The value for `COc1ncccc1C(=O)Nc1cn2cc(Cl)nc2cc1OC(C)C` [Example 401, N-(2-chloro-7-isopropoxyimidazo[1,2-a]pyridin-6-yl)-2-methoxynicotinamide] was 0.027 µM; that for `COc1c(F)cccc1C(=O)Nc1cn2cc(Cl)nc2cc1OC(C)C` [Example 402, N-(2-chloro-7-isopropoxyimidazo[1,2-a]pyridin-6-yl)-3-fluoro-2-methoxybenzamide 2,2,2-trifluoroacetate] was 0.157 µM; that for `CC(C)Cc1cc2nc(C3CCOCC3)cn2cc1NC(=O)c1cccc(C(F)F)n1` [Example 404, 6-(difluoromethyl)-N-(7-isobutyl-2-(tetrahydro-2H-pyran-4-yl)imidazo[1,2-a]pyridin-6-yl)picolinamide] was 0.004 µM.
With `O=C(Nc1cn2cc(C3CCOCC3)nc2cc1Cl)c1cccc(C(F)F)n1` [Example 405, N-(7-chloro-2-(tetrahydro-2H-pyran-4-yl)imidazo[1,2-a]pyridin-6-yl)-6-(difluoromethyl)picolinamide 2,2,2-trifluoroacetate] the figure was 0.006 µM; with `Cc1cc(NC(=O)c2cccc(C(F)F)n2)cn2cc(C34COC(C)(C3)C4)nc12` [Example 406, 6-(difluoromethyl)-N-(8-methyl-2-(1-methyl-2-oxabicyclo[2.1.1]hexan-4-yl)imidazo[1,2-a]pyridin-6-yl)picolinamide], 0.032 µM.
With `COc1c(F)cccc1C(=O)Nc1cc(C)c2nc(C34COC(C)(C3)C4)cn2c1` [Example 407, 3-fluoro-2-methoxy-N-(8-methyl-2-(1-methyl-2-oxabicyclo[2.1.1]hexan-4-yl)imidazo[1,2-a]pyridin-6-yl)benzamide] the figure was 0.732 µM.
The compound `Cc1cc(NC(=O)c2cccc3ccnn23)cn2cc(C34COC(C)(C3)C4)nc12` [Example 408, N-(8-methyl-2-(1-methyl-2-oxabicyclo[2.1.1]hexan-4-yl)imidazo[1,2-a]pyridin-6-yl)pyrazolo[1,5-a]pyridine-7-carboxamide 2,2,2-trifluoroacetate] had a concentration for half-maximal inhibition (IC50) of 0.025 µM.
With `Cc1cc(NC(=O)c2ccn(C)n2)cn2cc(C34COC(C)(C3)C4)nc12` [Example 409, 1-methyl-N-(8-methyl-2-(1-methyl-2-oxabicyclo[2.1.1]hexan-4-yl)imidazo[1,2-a]pyridin-6-yl)-1H-pyrazole-3-carboxamide 2,2,2-trifluoroacetate] the figure was 0.534 µM; with `CCOc1cc(NC(=O)c2cccc(C(F)F)n2)cn2cc(C34COC(C)(C3)C4)nc12` [Example 414, 6-(difluoromethyl)-N-(8-ethoxy-2-(1-methyl-2-oxabicyclo[2.1.1]hexan-4-yl)imidazo[1,2-a]pyridin-6-yl)picolinamide 2,2,2-trifluoroacetate], 0.01 µM; with `CCOc1cc(NC(=O)c2cccc(C(F)(F)F)n2)cn2cc(C3CCOCC3)nc12` [Example 415, N-(8-ethoxy-2-(tetrahydro-2H-pyran-4-yl)imidazo[1,2-a]pyridin-6-yl)-6-(trifluoromethyl)picolinamide hydrochloride], 0.033 µM.
The value for `CCOc1cc(NC(=O)c2cccc(C(F)(F)F)n2)cn2cc([C@H]3[C@@H]4COC[C@@H]43)nc12` [Example 416, N-(2-((1R,5S,6s)-3-oxabicyclo[3.1.0]hexan-6-yl)-8-ethoxyimidazo[1,2-a]pyridin-6-yl)-6-(trifluoromethyl)picolinamide] was 0.023 µM.
Compound `CCOc1cc(NC(=O)c2cccc(C)n2)cn2cc([C@H]3[C@@H]4COC[C@@H]43)nc12` [Example 417, N-(2-((1R,5S,6s)-3-oxabicyclo[3.1.0]hexan-6-yl)-8-ethoxyimidazo[1,2-a]pyridin-6-yl)-6-methylpicolinamide] yielded a half-inhibitory concentration (IC50) of 0.022 µM.
Consider `CC(C)Oc1cc(NC(=O)c2cccc(C(F)F)n2)cn2cc(C3CCOCC3)nc12` [Example 418, 6-(difluoromethyl)-N-(8-isopropoxy-2-(tetrahydro-2H-pyran-4-yl)imidazo[1,2-a]pyridin-6-yl)picolinamide 2,2,2-trifluoroacetate], for which inhibition was half-maximal at 0.021 µM (IC50). This IC50 and that of the compound before are within 1.5-fold of each other.
`CC12CC(c3cn4cc(NC(=O)c5cccc(C(F)F)n5)cc(OC(F)F)c4n3)(CO1)C2` [Example 419, N-(8-(difluoromethoxy)-2-(1-methyl-2-oxabicyclo[2.1.1]hexan-4-yl)imidazo[1,2-a]pyridin-6-yl)-6-(difluoromethyl)picolinamide] showed an IC50 of 0.011 µM.
Regarding `COc1ncccc1C(=O)Nc1cc(OC(F)F)c2nc(C34COC(C)(C3)C4)cn2c1` [Example 420, N-(8-(difluoromethoxy)-2-(1-methyl-2-oxabicyclo[2.1.1]hexan-4-yl)imidazo[1,2-a]pyridin-6-yl)-2-methoxynicotinamide 2,2,2-trifluoroacetate], the half-inhibitory concentration (IC50) is 0.071 µM.
In the case of `CC12CC(c3cn4cc(NC(=O)c5cccc6c5OCC6)cc(OC(F)F)c4n3)(CO1)C2` [Example 421, N-(8-(difluoromethoxy)-2-(1-methyl-2-oxabicyclo[2.1.1]hexan-4-yl)imidazo[1,2-a]pyridin-6-yl)-2,3-dihydrobenzofuran-7-carboxamide 2,2,2-trifluoroacetate], the IC50 was determined as 0.018 µM.
Compound `CC12CC(c3cn4cc(NC(=O)c5cccc6ccnn56)cc(OC(F)F)c4n3)(CO1)C2` [Example 422, N-(8-(difluoromethoxy)-2-(1-methyl-2-oxabicyclo[2.1.1]hexan-4-yl)imidazo[1,2-a]pyridin-6-yl)pyrazolo[1,5-a]pyridine-7-carboxamide 2,2,2-trifluoroacetate] registered a half-maximal inhibitory concentration (IC50) of 0.012 µM.
`Cn1ccc(C(=O)Nc2cc(OC(F)F)c3nc(C45COC(C)(C4)C5)cn3c2)n1` [Example 423, N-(8-(difluoromethoxy)-2-(1-methyl-2-oxabicyclo[2.1.1]hexan-4-yl)imidazo[1,2-a]pyridin-6-yl)-1-methyl-1H-pyrazole-3-carboxamide 2,2,2-trifluoroacetate] showed an IC50 of 0.092 µM.
With `COc1ccccc1C(=O)Nc1cn2cc(C34COC(C)(C3)C4)nc2c(F)c1OC(C)C` [Example 424, N-(8-fluoro-7-isopropoxy-2-(1-methyl-2-oxabicyclo[2.1.1]hexan-4-yl)imidazo[1,2-a]pyridin-6-yl)-2-methoxybenzamide 2,2,2-trifluoroacetate] the figure was 0.017 µM.
The value for `Cc1cccc(C(=O)Nc2cn3cc(C45COC(C)(C4)C5)nc3c(F)c2OC(C)C)c1F` [Example 425, 2-fluoro-N-(8-fluoro-7-isopropoxy-2-(1-methyl-2-oxabicyclo[2.1.1]hexan-4-yl)imidazo[1,2-a]pyridin-6-yl)-3-methylbenzamide 2,2,2-trifluoroacetate] was 0.003 µM.

These data come from patent US20220089592A1, “IMIDAZO[1,2-A]PYRIDINYL DERIVATIVES AS IRAK4 INHIBITORS” (priority 2019, published 2022).
